Data from patent US4396770A, “1-[3-(6-Fluoro-1,2-benzisoxazol-3-yl)propyl]-4-hydroxy -4-phenylpiperidines” (Hoechst-Roussel Pharmaceuticals Inc., priority 1982, dated 1983).
Read-outs that look alike come from different tables or passages of the source.

Columns and labels:
[1] = test system: phenyl-para-quinone induced writhes; assay: phenyl-para-quinone writhing assay in mice (analgesia); assay type: in vivo; conditions: Mus musculus, sc, subcutaneous, estimated dose for 50% reduction in phenyl-para-quinone induced writhes, read-out: Analgesic Activity (ED50 mg/kg)
From the text: Exptl. Biol. Med., 95, 729 (1953)]. Presented in Table 1 is the analgesic activity of representative compounds of the invention and two standards, expressed as the estimated subcutaneous dose at which the mice experience a 50% reduction in phenyl-para-quinone induced writhes, i.e., the ED50 -value.

[2] = test system: apomorphine-induced climbing; assay: climbing mice assay (antipsychotic activity); assay type: in vivo, CK-1 male mice; conditions: Mus musculus, ip
Protocol: The 1-[3-(6-fluoro-1,2-benzisoxazol-3-yl)propyl]-4-hydroxy-4-phenylpiperidinesof the present invention are useful for treating psychoses by virtue of their ability to block apomorphine-induced climbing in mammals.
Antipsychotic activity is determined in the climbing mice assay by a method similar to those described by P. Protais et al., Psychopharmacol., 50, 1 (1976) and B. Costall, Eur. J. Pharmacol., 50, 39 (1978).
The subject CK-1 male mice (23-27 grams) are group-housed under standard laboratory conditions. The mice are individually placed in wire mesh stick cages (4"×4"×10") and are allowed one hour for adaptation and exploration of the new environment. Then apomorphine is injected subcutaneously at 1.5 mg/kg, a dose causing climbing in all subjects for 30 minutes. Compounds to be tested for antipsychotic activity are injected intraperitoneally 30 minutes prior to the apomorphine challenge at a screening dose of 10 mg/kg.
For evaluation of climbing, 3 readings are taken at 10, 20 and 30 minutes after apomorphine administration according to the following scale:
Mice consistently climbing before the injection of apormorphine will be discarded.
With full-developed apomorphine climbing, the animals are hanging onto the cage walls, rather motionless, over longer periods of time. By contrast, climbs due to mere motor stimulation usually only last a few seconds.
The climbing scores are individually totaled (maximal score: 6 per mouse over 3 readings) and the total score of the control group (vehicle intraperitoneally--apomorphine subcutaneously) is set to 100%. ED50 values with 95% confidence limits are calculated by a Linear Regression Analysis. Antipsychotic activity expressed as the ED50 value of representative 1-[3-(6-fluoro-1,2-benzisoxazol-3-yl)propyl]-4-hydroxy-4-phenylpiperidinesas well as two standard antipsychotics are presented in Table II.

[3] = read-out: Antipsychotic Activity ED50 (mg/kg)

Structure (SMILES) | ED50 [1] | ED50 [2, 3] | ED50 ([2]; mice, intraperitoneal 30 minutes prior to apomorphine 1.5 mg/kg subcutaneously, climbing scores at 10, 20 and 30 minutes, read-out: Antipsychotic Activity ED50)
OC1(c2ccccc2)CCN(CCCc2noc3cc(F)ccc23)CC1 [Example 1, 1-[3-(6-Fluoro-1,2-benzisoxazol-3-yl)propyl]-4-hydroxy-4-phenylpiperidine] | 5.9 mg/kg | 9.6 mg/kg | 
Cl.OC1(c2cccc(Cl)c2)CCN(CCCc2noc3cc(F)ccc23)CC1 [Example 2, 4-(3-Chlorophenyl)-1-[3-(6-fluoro-1,2-benzisoxazol-3-yl)propyl]-4-hydroxypiperidine hydrochloride] | 0.8 mg/kg | 0.8 mg/kg | 
OC1(c2ccc(Cl)cc2)CCN(CCCc2noc3cc(F)ccc23)CC1 [Example 3, 4-(4-Chlorophenyl)-1-[3-(6-fluoro-1,2-benzisoxazol-3-yl)propyl]-4-hydroxypiperidine] |  | 0.51 mg/kg | 
OC1(c2ccc(F)cc2)CCN(CCCc2noc3cc(F)ccc23)CC1 [Example 4, 1-[3-(6-Fluoro-1,2-benzisoxazol-3-yl)propyl]-4-(4-fluorophenyl)-4-hydroxypiperidine] | 6.2 mg/kg | 0.8 mg/kg | 
Cc1ccccc1C1(O)CCN(CCCc2noc3cc(F)ccc23)CC1.Cl [Example 5, 1-[3-(6-Fluoro-1,2-benzisoxazol-3-yl)propyl]-4-hydroxy-4-(2-methylphenyl)piperidine hydrochloride] |  | 8.3 mg/kg | 
Cc1ccc(C2(O)CCN(CCCc3noc4cc(F)ccc34)CC2)cc1 [Example 6] |  | 0.56 mg/kg | 
COc1ccc(C2(O)CCN(CCCc3noc4cc(F)ccc34)CC2)cc1.Cl [Example 7, 1-[3-(6-Fluoro-1,2-benzisoxazol-3-yl)propyl]-4-hydroxy-4-(4-methoxyphenyl)piperidine hydrochloride] | 3.8 mg/kg |  | 
Cl.OC1(c2cccc(C(F)(F)F)c2)CCN(CCCc2noc3cc(F)ccc23)CC1 [Example 8, 1-[3-(6-Fluoro-1,2-benzisoxazol-3-yl)propyl]-4-hydroxy-4-(3-trifluoromethylphenyl)piperidine hydrochloride] | 1 mg/kg | 0.25 mg/kg | 
OC1(c2ccc(C(F)(F)F)cc2)CCN(CCCc2noc3cc(F)ccc23)CC1 [Example 9, 1-[3-(6-Fluoro-1,2-benzisoxazol-3-yl)propyl]-4-hydroxy-4-(4-trifluoromethylphenyl)piperidine] |  | 3.1 mg/kg | 
O=C(CCCN1CCC(O)(c2ccc(Cl)cc2)CC1)c1ccc(F)cc1 [haloperidol, reference compound] |  | 0.11 mg/kg | 
CC(C)=CCN1CCC2(C)c3cc(O)ccc3CC1C2C (centres unmarked) [pentazocin, reference compound] | 1.3 mg/kg |  | 
CCC(=O)O[C@](Cc1ccccc1)(c1ccccc1)[C@H](C)CN(C)C [propoxyphene, reference compound] | 3.9 mg/kg |  | 
CCN1CCCC1CNC(=O)c1cc(S(N)(=O)=O)ccc1OC (centres unmarked) [sulpiride, reference compound] |  |  | 4.5 mg/kg
